The text below walks through data of patent US9732088B2, “C2-carbocyclic iminothiazine dioxides as BACE inhibitors, compositions, and their use” (Merck Sharp & Dohme Corp., priority 2014, dated 2017).

Assay [1] addresses purified human autoBACE-2 (Homo sapiens (Human), UniProt Q9Y5Z0). The assay can be described thus: BACE-2 Assay (BACE-HTRF assay). The class given is biochemical. The conditions noted are these: Assay 2; Ki calculated from IC50 by Cheng-Prusoff; read-out: BACE2 Ki. In short, it runs like this: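 Purified human autoBACE-2 (1 nM final) pre-incubated 30 min at 30° C with compounds in 20 mM sodium acetate pH 5.0, 10% glycerol, 0.1% Brij-35, 5% DMSO final; endpoint HTRF cleavage of QSY7/Eu FRET peptide, read at 620 nm (320 nm excitation). IC50 by sigmoidal regression of normalized data; Ki by Cheng-Prusoff.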

Assay [2] has as its target BACE-1 (Homo sapiens (Human), UniProt P56817). The assay can be described thus: BACE-1 Cellular Assay (Aβ in HEK293-APPswe/lon cells). The class given is cell-based. The conditions noted are these: 4 hours. In short, it runs like this:
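HEK293 cells stably expressing human APP with Swedish and London FAD mutations, cultured at 37° C., 5% CO2. Aβ40 or Aβ42 in conditioned media measured by electrochemiluminescent ELISA (WO2 capture; G2-10 or G2-11 detection). IC50 from variable-slope sigmoidal fit of signal versus compound concentration.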

For assay [3], the target named is purified human Cathepsin-D (Homo sapiens (Human), UniProt P07339). The assay can be described thus: Cathepsin-D Assay (time-resolved FRET).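 Further: Europium-labelled peptide substrate with QSY7 quencher, cleavage read as 620 nm fluorescence after 30 min preincubation then 30 min reaction at 30 °C, pH 5.0, inhibition lowers signal.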 Format: biochemical. The conditions noted are these: Assay 4; Ki calculated from IC50 by Cheng-Prusoff.
Experimental: Assay 4: Cathepsin-D Assay
This substrate contains an C-terminal QSY7 moiety that serves as a quencher of the N-terminal Europium fluorophore (620 nm Em). In the absence of enzyme activity, 620 nm fluorescence is low in the assay and increased linearly over 1 hour in the presence of uninhibited Cathepsin-D enzyme. Inhibition of Cathespin D cleavage of the Eu-Aspartyl Protease-QSY7 substrate by inhibitors is manifested as a suppression of 620 nm fluorescence.
Varying concentrations of inhibitors in a volume of 100 nl are preincubated with purified human Cathepsin-D (0.1 nM in 10 μl) for 30 minutes at 30° C. in reaction buffer containing 100 mM Na-Acetate pH 5.0, and 0.02% Brij-35. Reactions are initiated by addition of 10 μl of 100 nM Eu-Aspartyl Protease-QSY7 substrate (50 nM final) to give a final reaction volume of 20 μl in a 384 well Nunc HTRF plate. The reactions are incubated at 30° C. for 30 minutes. The 620 nm fluorescence is then read on a Envision Multilabel plate reader (Perkin-Elmer) using a 200 microsecond delay followed by a 400 microsecond acquisition time window. Inhibitor IC50 values are derived from non-linear regression analysis of concentration response curves.
Assay [4] deals with CSF Aβ40. The assay can be described thus: Aβ Reduction In Vivo (rat CSF Aβ40). To be noted: male CD IGS rats, 10 mg/kg oral gavage, CSF at 3 hours, change vs vehicle. As to the method:
Assay 5: Aβ Reduction In Vivo
The in vivo efficacy and/or potency of BACE inhibitors (test compounds) can be evaluated using a variety of animal models, including mouse, rat, dog, and monkey, and these animals can be wild type, transgenic, or gene knockout animals.
Generally, animals are administered (by oral gavage, intravenous injection, or by other suitable route) a test compound in doses ranging from, for example, 0.1 mg/kg (mg of compound per kg of animal body weight) to 100 mg/kg formulated in vehicles, such as cyclodextrin, phosphate buffer, hydroxypropyl methylcellulose or other suitable vehicles. One to twenty-four hours following the administration of compound, animals are sacrificed, and tissues (for example, brain, cerebrospinal fluid (CSF), and/or plasma) are collected for analysis of Aβ levels and/or test compound concentrations (Dovey et al., 2001, Journal of Neurochemistry, 76, 173-181). Tissue samples are processed appropriately and then analyzed for the presence of Aβ by specific sandwich ELISA assays based on electrochemiluminescence (ECL) technology.
For example, in the following assay for which data are reported below, male CD IGS rats (body weight approximately 120 g, Charles River Laboratories, Kingston, N.Y.) were used to assess lowering of CSF levels of Aβ1-40 (Aβ40) in the presence of compounds of the invention. At time 0, animals were administered by oral gavage a test compound at a dose of 10 mg/kg in 20% hydroxypropyl-β-cyclodextrin (dosing volume 5 mL/kg). A separate group of animals received 20% hydroxypropyl-β-cyclodextrin alone to serve as the vehicle control group. Three hours after administration, the rats were euthanized with excess CO2. Immediately following euthanasia, CSF was collected from the cisterna magna and quickly frozen on dry ice. Samples were stored at −80° C. until quantification of Aβ40 levels.
The measurement of endogenous rat Aβ40 in CSF relied on the 585 antibody (Ab585, BioSource, NONO585), which specifically recognizes the N-terminal sequence of rodent Aβ40, and on the monoclonal antibody, G2-10, which specifically recognizes the free C-terminus of Aβ40. Ab585 was labeled with biotin (b-Ab585) by first dialyzing the antibody sample extensively versus PBS (pH 7.8) to remove impurities, followed by dilution to between 1 and 2 mg/mL protein concentration. EZ-Link Sulfo-NHS-LC-Biotin (Pierce) was dissolved in PBS (pH 7.8) at a concentration of 1 mg/mL immediately prior to use. Ab585 was labeled with EZ-Link Sulfo-NHS-LC-biotin using a 10:1 biotin:antibody ratio by incubation at room temperature for 1 hour. The labeling reaction was quenched by addition of 1.0 M glycine to a final concentration of 0.1 M followed by 10 minute incubation at room temperature. Glycine was removed by extensive dialysis versus PBS.
For rat CSF Aβ40 determinations, a calibration curve of various concentrations of synthetic rodent Aβ40 was assayed in parallel with rat CSF samples in duplicate using an avidin-coated 96-well MSD plate (Mesoscale Diagnostics). Either 50 μL of rodent Aβ40 standards diluted in PBS (pH 7.4) supplemented with 1% BSA and 1% Tween-20 (standard diluent buffer) or 40 μL of standard diluent buffer plus 10 μL rat CSF were added to each 96 well avidin-coated plate. To each well was added 50 μL of 0.1 M HEPES (pH 7.5), 2% BSA, 2% Tween-20, 0.3 M NaCl (2×Aβ40 buffer) supplemented with the b-Ab585 capture and ruthenylated-G2-10 detection antibodies diluted to 1 μg/mL and 0.5 μg/mL, respectively. Plates were shaken for 1 min on a microplate shaker, covered to protect from light and incubated overnight (˜16 h) at 4° C. For detection, plates were first washed twice with 100 μL of 1×CSF Aβ40 buffer followed by addition of 160 μL of 1×MSD read buffer-T (Mesoscale Diagnostics) diluted in 1×CSF Aβ40 buffer. Plates were read on a MSD Sector Imager 2400 model (Mesoscale Diagnosotics). […]

Chain of purified human autoBACE-2 (Q9Y5Z0 63-466): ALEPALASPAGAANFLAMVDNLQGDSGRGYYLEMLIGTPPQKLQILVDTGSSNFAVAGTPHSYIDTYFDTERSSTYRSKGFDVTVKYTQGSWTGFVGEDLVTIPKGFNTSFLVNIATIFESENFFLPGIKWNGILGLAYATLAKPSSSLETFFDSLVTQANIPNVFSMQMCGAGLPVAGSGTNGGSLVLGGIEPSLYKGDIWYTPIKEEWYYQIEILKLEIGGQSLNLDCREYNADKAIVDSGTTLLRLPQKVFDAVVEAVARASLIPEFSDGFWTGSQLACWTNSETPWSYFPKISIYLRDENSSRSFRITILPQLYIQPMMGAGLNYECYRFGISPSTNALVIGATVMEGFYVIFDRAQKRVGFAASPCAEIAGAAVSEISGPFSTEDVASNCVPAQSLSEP
Chain of BACE-1 (P56817 46-501): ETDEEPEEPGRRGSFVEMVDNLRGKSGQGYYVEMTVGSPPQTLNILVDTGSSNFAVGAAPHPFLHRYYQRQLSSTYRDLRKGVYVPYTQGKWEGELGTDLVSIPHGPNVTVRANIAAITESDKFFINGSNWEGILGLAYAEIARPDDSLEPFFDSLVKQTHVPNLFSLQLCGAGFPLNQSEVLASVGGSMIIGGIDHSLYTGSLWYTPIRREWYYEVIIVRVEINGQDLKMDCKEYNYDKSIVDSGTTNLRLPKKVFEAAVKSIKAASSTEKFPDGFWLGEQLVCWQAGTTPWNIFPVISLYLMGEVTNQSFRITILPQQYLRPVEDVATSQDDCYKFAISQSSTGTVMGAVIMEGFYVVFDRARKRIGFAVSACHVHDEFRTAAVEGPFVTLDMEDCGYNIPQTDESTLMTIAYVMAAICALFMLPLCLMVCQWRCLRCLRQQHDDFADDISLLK
Chain of purified human Cathepsin-D (P07339 65-412): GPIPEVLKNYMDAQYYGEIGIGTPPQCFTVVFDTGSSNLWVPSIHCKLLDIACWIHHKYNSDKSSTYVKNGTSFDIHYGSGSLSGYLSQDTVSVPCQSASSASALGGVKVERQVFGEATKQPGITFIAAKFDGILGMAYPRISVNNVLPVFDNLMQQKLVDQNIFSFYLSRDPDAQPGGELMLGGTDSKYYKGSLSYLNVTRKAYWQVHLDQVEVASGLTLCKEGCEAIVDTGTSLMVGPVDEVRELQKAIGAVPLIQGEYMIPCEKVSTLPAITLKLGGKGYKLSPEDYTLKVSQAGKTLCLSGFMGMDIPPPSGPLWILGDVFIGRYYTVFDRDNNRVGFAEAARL

On to `COc1cnc2c(Nc3ccc(F)c([C@]4(C)CS(=O)(=O)[C@@](C)(C5CC5)C(N)=N4)c3)nccc2c1` [Example 14, N-{3-[(3R,6S)-6-cyclopropyl-5-imino-3,6-dimethyl-1,1-dioxidothiomorpholin-3-yl]-4-fluorophenyl}-3-methoxy-1,7-naphthyridin-8-amine], for which the Ki is 2.8 nM in assay [1] and 1650 nM in assay [3]. The IC50 in assay [2] came out at 21 nM.
As for `COc1cnc2c(Nc3ccc(F)c([C@]4(C)CS(=O)(=O)C(C)(C)C(N)=N4)c3)nccc2n1` [Ex 47 of WO2014059185, reference compound], the “Aβ reduction in vivo in rat (Δ% CSF Aβ40 @ 10 mpk)” value in assay [4] was −88%.
On to `C[C@@]1(c2cc(Nc3nccc4cc(C#N)cnc34)ccc2F)CS(=O)(=O)[C@@](C)(C2CC2)C(N)=N1` [Example 18, 8-({3-[(3R,6S)-6-cyclopropyl-5-imino-3,6-dimethyl-1,1-dioxidothiomorpholin-3-yl]-4-fluorophenyl}amino)-1,7-naphthyridine-3-carbonitrile], for which the Ki in assay [1] was 0.64 nM; in assay [3] it was 651 nM. Moreover, in assay [4], the “Aβ reduction in vivo in rat (Δ% CSF Aβ40 @ 10 mpk)” value is listed as −87%. This compound also displayed a concentration for half-maximal inhibition (IC50) in assay [2] of 4.8 nM.
Regarding `CC1(C)C(=N)N[C@](C)(c2cc(Nc3noc4cc(F)cnc34)ccc2F)CS1(=O)=O` [WO′426 Ex. 30b, reference compound], in assay [1], the Ki is 6.1 nM. For the same compound, the “Aβ reduction in vivo in rat (Δ% CSF Aβ40 @ 10 mpk)” value in assay [4] is given as “+6%”. In addition, the half-inhibitory concentration (IC50) in assay [2] amounted to 82 nM.
As to `COc1cnc2c(Nc3ccc(F)c([C@]4(C)CS(=O)(=O)[C@@](C)(C5CC5)C(N)=N4)c3)ncnc2n1` [Example 22, (2S,5R)-2-cyclopropyl-5-(2-fluoro-5-((7-methoxypteridin-4-yl)amino)phenyl)-3-imino-2,5-dimethylthiomorpholine 1,1-dioxide], the results for the inhibition constant Ki in assay [1] and in assay [3] were 11 nM and more than 9400 nM, respectively. In addition, the “Aβ reduction in vivo in rat (Δ% CSF Aβ40 @ 10 mpk)” value in assay [4] is reported as −70%. This compound also came in with an IC50 in assay [2] of 15 nM.
On the same counts, the results for `C[C@@]1(c2cc(Nc3ncnc4cc(C#N)cnc34)ccc2F)CS(=O)(=O)[C@@](C)(C2CC2)C(N)=N1` [Example 16, 4-({3-[(3R,6S)-6-cyclopropyl-5-imino-3,6-dimethyl-1,1-dioxidothiomorpholin-3-yl]-4-fluorophenyl}amino)pyrido[3,2-d]pyrimidine-7-carbonitrile] are 1.4 nM, 2450 nM, −85% and 2.6 nM.
Consider `C[C@@]1(c2nc(Nc3nccc4cc(C#N)cnc34)ncc2F)CS(=O)(=O)[C@@](C)(C2CC2)C(N)=N1` [Example 5, 8-({4-[(3R,6S)-6-cyclopropyl-5-imino-3,6-dimethyl-1,1-dioxidothiomorpholin-3-yl]-5-fluoropyrimidin-2-yl}amino)-1,7-naphthyridine-3-carbonitrile], for which the inhibitory constant (Ki) was 7.8 nM in assay [1] and 710 nM in assay [3]. Also, inhibition in assay [2] was half-maximal at 10 nM (IC50).
Regarding `COc1cnc2c(Nc3cc([C@]4(C)CS(=O)(=O)[C@@](C)(C5CC5)C(N)=N4)c(F)cn3)nccc2c1` [Example 6, N-{4-[(3R,6S)-6-cyclopropyl-5-imino-3,6-dimethyl-1,1-dioxidothiomorpholin-3-yl]-5-fluoropyridin-2-yl}-3-methoxy-1,7-naphthyridin-8-amine], the Ki in assay [1] was 0.57 nM; in assay [3] it was more than 9400 nM. Moreover, in assay [4], the “Aβ reduction in vivo in rat (Δ% CSF Aβ40 @ 10 mpk)” value was −92%. This compound had a half-maximal inhibitory concentration (IC50) in assay [2] of 3 nM.
